What was measured:
Mushroom Tyrosinase [1] = assay: Inhibitory effects on mushroom tyrosinase (dopachrome, OD490, 15 min); type: biochemical
Description: (§1) L-Tyrosine, the substrate for tyrosinase, was dissolved in 50 mM sodium phosphate buffer (pH6.8) to prepare a solution of 0.1 mg/mL L-tyrosine. […] 100 μL of the L-tyrosine solution was introduced into a test tube, and 100 μL of 50 mM sodium phosphate buffer (pH6.8) with or without test samples were added thereto, and then 10 μL of 200 U/mL tyrosinase were mixed and incubated at 37° C. for 15 min.
The amount of dopachrome in the reaction mixture was determined spectrophotmetrically using absorbance measurement at 490 nm.

Murine Tyrosinase = target: T1, Murine Tyrosinase (Mus musculus, UniProt P11344); assay: Inhibitory effects on murine tyrosinase prepared from melanoma B-16 cells; type: biochemical; conditions: tyrosinase from melanoma B-16 cells
T1 construct: supernatant was dialyzed against 50 mM sodium phosphate buffer (pH 6.8) and then used as a source of murine tyrosinase; endogenous in cells; host or cells: murine melanoma B-16 cells (Triton X-100 extract, dialysed supernatant)
T1 sequence (P11344 19-533): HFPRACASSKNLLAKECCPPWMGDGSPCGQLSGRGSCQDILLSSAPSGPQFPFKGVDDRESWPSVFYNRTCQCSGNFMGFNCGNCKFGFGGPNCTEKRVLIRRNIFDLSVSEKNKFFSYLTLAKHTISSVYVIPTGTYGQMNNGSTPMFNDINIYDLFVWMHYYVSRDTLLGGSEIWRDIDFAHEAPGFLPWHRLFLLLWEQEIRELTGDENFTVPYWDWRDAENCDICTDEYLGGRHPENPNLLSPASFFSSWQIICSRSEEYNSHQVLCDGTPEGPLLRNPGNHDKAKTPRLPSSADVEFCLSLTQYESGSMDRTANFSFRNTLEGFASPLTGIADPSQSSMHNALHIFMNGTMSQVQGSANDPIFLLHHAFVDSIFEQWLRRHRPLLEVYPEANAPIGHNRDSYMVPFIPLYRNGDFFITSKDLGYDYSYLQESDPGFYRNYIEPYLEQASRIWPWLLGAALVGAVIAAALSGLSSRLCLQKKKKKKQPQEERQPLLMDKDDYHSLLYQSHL
Description: Murine tyrosinase was prepared from the melanoma B-16 cell line. Murine melanoma B-16 cells were grown in DMEM (13.4 mg/mL of Dulbecco's modified Eagle's medium, 24 mM NaHCO3, 10 mM HEPES, 143 units/mL of penicillin G potassium, 160 μg/mL of streptomycin sulfate, pH 7.1) containing 10% fetal bovine serum (FBS) with 5% CO2 at 37° C. When the cells were confluent, melanoma cells were removed from culture dishes and washed once with PBS buffer. The cell suspension was centrifuged at 250×g for 10 min at 4° C. The cell pellet was suspended in 0.5 mL of 50 mM sodium phosphate buffer (pH 6.8) containing 0.1 mM phenylmethylsulfonyl fluoride and 0.5% Triton X-100. The cell suspension was sonicated six times for 30 sec each with 1 min intervals and then incubated at 4° C. for 1 hr to solubilize the tyrosinase. After centrifugation at 50,000×g for 20 min at 4° C., supernatant was dialyzed against 50 mM sodium phosphate buffer (pH 6.8) and then used as a source of murine tyrosinase.
As in the mushroom tyrosinase experiment discussed above, the amount of dopachrome in the reaction mixture was determined spectrophotmetrically using absorbance measurement at 490 nm.

Human Tyrosinase = target: T2, Human Tyrosinase (Homo sapiens, UniProt P14679); assay: Inhibitory effects on human tyrosinase prepared from HM3KO human melanoma cells; type: biochemical
T2 construct: endogenous in cells; host or cells: HM3KO human melanoma cells (Triton X-100 extract, dialysed supernatant)
T2 sequence (P14679 19-529): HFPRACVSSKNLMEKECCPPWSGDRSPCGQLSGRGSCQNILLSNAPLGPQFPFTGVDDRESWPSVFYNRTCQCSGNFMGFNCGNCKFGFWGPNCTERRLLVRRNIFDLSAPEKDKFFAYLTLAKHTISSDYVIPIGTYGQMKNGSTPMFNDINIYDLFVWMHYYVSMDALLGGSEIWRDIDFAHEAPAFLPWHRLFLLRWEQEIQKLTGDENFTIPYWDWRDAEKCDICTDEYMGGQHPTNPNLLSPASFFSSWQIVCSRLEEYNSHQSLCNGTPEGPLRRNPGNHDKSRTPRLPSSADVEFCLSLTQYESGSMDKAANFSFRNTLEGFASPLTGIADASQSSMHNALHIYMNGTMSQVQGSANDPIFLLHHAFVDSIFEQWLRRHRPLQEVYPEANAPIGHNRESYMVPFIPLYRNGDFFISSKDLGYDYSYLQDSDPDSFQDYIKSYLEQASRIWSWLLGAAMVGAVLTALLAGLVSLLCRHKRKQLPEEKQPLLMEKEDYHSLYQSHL
Description: Human tyrosinase was prepared from the HM3KO human melanoma cell line. HM3KO cells were cultured in modified Eagles medium supplemented with 10% fetal calf serum. Cultured cells were removed from culture dishes and washed once with PBS buffer and centrifuged. The cell pellet was sonicated in 100 mM sodium phosphate buffer (pH6.8) containing 0.1 mM phenylmethylsulfonyl fluoride (PMSF) and 1% Triton X-100, incubated in ice for 1 hr to solubilize the tyrosinase, and centrifuged. The supernatant was dialyzed against 50 mM sodium phosphate buffer (pH 6.8) and then used as the source of human tyrosinase for use in our inhibition assays.
As in the mushroom and murine tyrosinase experiments discussed above, the amount of dopachrome in the reaction mixture was determined spectrophotmetrically using absorbance measurement at 490 nm.

[2] = tested on: murine melanoma B16 cells; assay: Melanin production in murine melanoma B-16 cells; type: cell-based; conditions: for Melanin production (%): B16 cells, 3 days
Description: The melanoma cell line was grown in DMEM culture medium containing 4.5 g of glucose/l, 10% fetal bovine serum and 1% antibiotic agent and cultivated at 37° C. under a condition of 5% CO2. The cell suspension was inoculated in a 50 mL T-flask (3×10^5 cells/mL) and the cells were allowed to completely adhere to the plate for 24 hr. Then, test samples diluted in DMEM medium at concentrations of 1, 5, 10, 50, and 100 μg/mL were added to the cultivated cells, and the mixture was cultivated at 5% CO2 and 37° C. for 3 days. After cultivation, culture medium was thoroughly removed and the cells were isolated via trypsin treatment. The suspensions were then centrifuged for 5 min to collect cells. The obtained cells were treated with 5% trichloroacetic acid (TCA), stirred and centrifuged. The precipitated melanin was washed with phosphate buffered saline (PBS), and treated with 1 N NaOH to dissolve the melanin therein. Absorbance at 475 nm was measured. Melanin concentration was determined from a standard concentration curve of synthetic melanin (SIGMA Co., USA).

melan-a cell line = assay: Melanin production in melan-a cell line; type: cell-based; conditions: melan-a cells; for Melanin production (%): 72 hr
Description: Melan-a cells were grown in 10 mL of RPMI 1640 medium supplemented with antibiotics, 10% fetal bovine serum (FBS), and 20 nM TPA. The cell suspension was inoculated in a 24-well plate (10^5 cells/mL) and the cells were allowed to completely adhere to the plate for 24 hr. Test samples dissolved in DMSO were added to the plate and incubated at 37° C. for 72 hr in a CO2 incubator. The culture medium was then thoroughly removed and the cells were isolated through trypsin treatment. The suspensions were then centrifuged for 5 min to collect cells, which were then treated with 5% trichloroacetic acid (TCA), stirred and centrifuged to precipitate the melanin. Melanin was washed with PBS and dissolved in 1 N NaOH. Absorbance at 475 nm was measured. Melanin concentration was determined from a standard concentration curve of synthetic melanin (SIGMA Co., USA).

Mushroom Tyrosinase [3] = assay: Extended duration of mushroom tyrosinase inhibition (up to 24 hours); type: biochemical
Description: as §1
Using the experimental conditions described in the Mushroom Tyrosinase experiment described above, the reaction mixtures, containing various concentrations from 1 μg/mL to 50 μg/mL of the agents assayed, were incubated at 37° C. and spectrophotometric measurements of dopachrome were made at time intervals of up to 24 hours.

tyrosinase mRNA = assay: RT-PCR analysis of tyrosinase mRNA in murine melanoma B-16 cells; type: cell-based; conditions: FIG. 5
Description: To elucidate the mechanism by which Morus alba extract and mulberroside A exerts its effect, RT-PCR analysis was performed. mRNA from cultured murine melanoma B-16 cells were isolated using a Promega polytract system 1000 mRNA isolation kit. Approximately 80 to 100 μg of mRNA was isolated from 10^8 cells. We synthesized the 3′ primer 5′[…]3′ (nucleotides 197-216 from the ATG start codon) and the 5′ primer 5′[…]3′ (nucleotides 669-688 from the ATG start codon) for use in the RT-PCR analysis of tyrosinase mRNA.
This mixture was incubated for 1 minute at 94° C., then for 30 seconds at 55° C. and finally for 10 minutes at 72° C.
For PCR amplification of cDNA, 80 μL of a PCR mixture containing 8 μL of 10× chelating buffer, 1 mM MgCl2 and 50 pmole of 5′ primer was added to the reverse transcription reaction mixture. DNA amplification was performed on a Perkin Elmer Gene Amp PCR system 2400 thermal cycler. The PCR cycle conditions included melting for 30 sec at 94° C., annealing for 30 sec at 55° C., and extension for 1 min at 72° C. The PCR ran for 28 cycles, and the products (492 bp) were analyzed by 2% agarose gel electrophoresis. As an internal control, mouse β-actin mRNA was also amplified using the mouse β-actin amplimer set (Clontech, USA).

melanocytes = assay: Microscopic observation of pigmentation of confluent melanocyte monolayer; type: cell-based; conditions: cell line not specified
Source text: The pigmentation of a confluent monolayer of melanocytes is visible microscopically, as the cells contain black melanin pigment.

OC[C@H]1O[C@@H](Oc2cc(O)cc(/C=C/c3ccc(O[C@@H]4O[C@H](CO)[C@@H](O)[C@H](O)[C@H]4O)cc3O)c2)[C@H](O)[C@@H](O)[C@@H]1O [Mulberroside A, mulberroside A]
IC50 (Mushroom Tyrosinase [1]; 37° C., 15 min, L-tyrosine substrate): 9.5 µM | inhibitory effect on mushroom tyrosinase (in words) (Mushroom Tyrosinase [1]; FIGS. 1 and 2): the most potent inhibitors of mushroom tyrosinase | IC50 (Murine Tyrosinase): 61.5 µM | IC50 (Human Tyrosinase): 76.8 µM | Melanin production (%) ([2]; 1 μg/mL): 98.3 ± 1.0% | Melanin production (%) ([2]; 5 μg/mL): 92.4 ± 2.1% | Melanin production (%) ([2]; 10 μg/mL): 91.2 ± 7.3% | Melanin production (%) ([2]; 50 μg/mL): 59.8 ± 9.0% | Melanin production (%) ([2]; 100 μg/mL): 21.8 ± 5.4% | reduction in melanin production ([2]; melanoma B-16 cells, 100 μg/mL): 78.2% | Melanin production (%) (melan-a cell line; 1 μg/mL): 98.5 ± 7.2% | Melanin production (%) (melan-a cell line; 5 μg/mL): 93.6 ± 4.8% | Melanin production (%) (melan-a cell line; 10 μg/mL): 92.8 ± 6.5% | Melanin production (%) (melan-a cell line; 50 μg/mL): 61.2 ± 8.0% | reduction in melanin production (melan-a cell line; 100 μg/mL): 76.3% | Melanin production (%) (melan-a cell line; 100 μg/mL): 23.7 ± 3.8% | fold stronger inhibitory effect on tyrosinase activity than kojic acid (Mushroom Tyrosinase [3]; from IC50 values after 24 hours incubation): 12 fold | IC50 (Mushroom Tyrosinase [3]; read-out: IC50 for tyrosinase inhibition after 24 hours incubation, 24 hours incubation): 20 µM | amount of tyrosinase mRNA (tyrosinase mRNA): decreased the amount of tyrosinase mRNA in a dose-dependent manner | pigmentation of treated cells observed microscopically (melanocytes): Reduced pigmentation
